A word on the IC50: it is the concentration that gives 50% inhibition.

From ChEMBL document CHEMBL1201862, “PubChem BioAssay data set” (2004) come the findings set out here.

Calls of active or inactive are those of the source. Where only a bound is given, the exact number is not on record here.

One experiment concerns the target T1, NADPH oxidase 1 (Homo sapiens, UniProt Q9Y5S8).
T1 sequence (Q9Y5S8 whole entry): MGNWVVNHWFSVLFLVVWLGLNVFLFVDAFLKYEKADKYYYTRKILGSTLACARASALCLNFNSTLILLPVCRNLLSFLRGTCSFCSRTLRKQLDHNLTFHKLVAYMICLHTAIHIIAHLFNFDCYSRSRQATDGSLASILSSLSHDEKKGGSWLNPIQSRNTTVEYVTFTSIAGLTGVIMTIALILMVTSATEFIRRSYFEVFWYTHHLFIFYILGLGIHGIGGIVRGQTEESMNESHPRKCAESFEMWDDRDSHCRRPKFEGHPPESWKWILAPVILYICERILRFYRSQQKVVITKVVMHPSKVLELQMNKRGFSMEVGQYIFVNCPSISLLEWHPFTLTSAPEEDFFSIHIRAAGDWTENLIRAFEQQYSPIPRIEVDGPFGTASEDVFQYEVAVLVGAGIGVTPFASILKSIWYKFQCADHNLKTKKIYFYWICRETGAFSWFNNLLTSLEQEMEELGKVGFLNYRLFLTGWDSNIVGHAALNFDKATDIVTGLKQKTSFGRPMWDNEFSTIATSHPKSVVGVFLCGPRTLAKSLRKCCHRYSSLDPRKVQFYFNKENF
Description: Late stage results from the probe development effort to identify inhibitors of NOX1: HEK/293 IC50. [Related pubchem assays: 1796 (Summary AID (NOX1)), 2752 (Primary screen (NOX1 inhibitors, synthesized analogs set 2)), 2664 (Primary screen (NOX1 inhibitors, synthesized analogs)), 1792 (Primary Screen (NOX1)), 2545 (Confirmation screen (NOX1 …. In kind it is functional.

The target in experiment [1] is G-protein coupled receptor 183 (Homo sapiens, UniProt P32249). Description: SAR confirmation of small molecule antagonists of the EBI2 receptor via a luminescent beta-arrestin assa. In kind it is functional.
G-protein coupled receptor 183, sequence (P32249 whole entry): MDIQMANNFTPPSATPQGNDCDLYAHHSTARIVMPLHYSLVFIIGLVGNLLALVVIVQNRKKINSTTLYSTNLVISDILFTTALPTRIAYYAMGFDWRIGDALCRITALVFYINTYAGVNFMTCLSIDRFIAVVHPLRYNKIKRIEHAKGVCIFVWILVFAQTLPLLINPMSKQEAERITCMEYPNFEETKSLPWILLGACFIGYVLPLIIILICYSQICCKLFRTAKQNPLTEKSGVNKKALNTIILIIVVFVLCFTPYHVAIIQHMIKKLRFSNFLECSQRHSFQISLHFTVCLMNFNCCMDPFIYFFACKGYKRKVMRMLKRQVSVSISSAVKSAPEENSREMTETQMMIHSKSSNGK
In the next experiment the target is Phospholipase D2 (Homo sapiens, UniProt O14939). Briefly: PLD2 Cellular Concentration Response Study. It counts as functional.
Phospholipase D2, sequence (O14939 whole entry): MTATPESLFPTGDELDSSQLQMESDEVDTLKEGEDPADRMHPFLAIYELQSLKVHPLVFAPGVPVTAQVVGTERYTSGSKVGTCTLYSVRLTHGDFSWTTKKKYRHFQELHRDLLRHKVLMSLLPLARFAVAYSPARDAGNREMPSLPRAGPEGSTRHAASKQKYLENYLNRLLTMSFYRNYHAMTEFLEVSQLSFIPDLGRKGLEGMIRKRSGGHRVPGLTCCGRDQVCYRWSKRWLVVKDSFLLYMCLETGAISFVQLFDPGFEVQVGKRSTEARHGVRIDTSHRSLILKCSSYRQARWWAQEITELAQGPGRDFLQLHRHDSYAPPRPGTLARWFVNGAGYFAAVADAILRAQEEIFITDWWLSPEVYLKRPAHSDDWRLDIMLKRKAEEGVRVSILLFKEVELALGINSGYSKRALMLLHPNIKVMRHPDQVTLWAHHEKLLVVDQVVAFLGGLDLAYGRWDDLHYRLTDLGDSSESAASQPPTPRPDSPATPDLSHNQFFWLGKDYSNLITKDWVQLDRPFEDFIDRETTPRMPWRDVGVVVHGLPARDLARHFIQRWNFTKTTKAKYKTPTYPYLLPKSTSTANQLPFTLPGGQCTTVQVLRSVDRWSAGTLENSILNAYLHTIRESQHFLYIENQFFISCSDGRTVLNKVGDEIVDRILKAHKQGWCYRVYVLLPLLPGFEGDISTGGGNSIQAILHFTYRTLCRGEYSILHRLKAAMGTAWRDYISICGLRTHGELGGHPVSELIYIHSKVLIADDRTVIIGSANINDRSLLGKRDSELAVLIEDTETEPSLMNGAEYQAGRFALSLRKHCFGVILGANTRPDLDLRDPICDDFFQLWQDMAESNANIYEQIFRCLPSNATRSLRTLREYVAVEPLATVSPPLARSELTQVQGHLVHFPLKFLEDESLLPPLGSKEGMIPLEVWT
For another experiment, the target named is T2, Phospholipase D1 (Homo sapiens, UniProt Q13393).
T2 sequence (Q13393 whole entry): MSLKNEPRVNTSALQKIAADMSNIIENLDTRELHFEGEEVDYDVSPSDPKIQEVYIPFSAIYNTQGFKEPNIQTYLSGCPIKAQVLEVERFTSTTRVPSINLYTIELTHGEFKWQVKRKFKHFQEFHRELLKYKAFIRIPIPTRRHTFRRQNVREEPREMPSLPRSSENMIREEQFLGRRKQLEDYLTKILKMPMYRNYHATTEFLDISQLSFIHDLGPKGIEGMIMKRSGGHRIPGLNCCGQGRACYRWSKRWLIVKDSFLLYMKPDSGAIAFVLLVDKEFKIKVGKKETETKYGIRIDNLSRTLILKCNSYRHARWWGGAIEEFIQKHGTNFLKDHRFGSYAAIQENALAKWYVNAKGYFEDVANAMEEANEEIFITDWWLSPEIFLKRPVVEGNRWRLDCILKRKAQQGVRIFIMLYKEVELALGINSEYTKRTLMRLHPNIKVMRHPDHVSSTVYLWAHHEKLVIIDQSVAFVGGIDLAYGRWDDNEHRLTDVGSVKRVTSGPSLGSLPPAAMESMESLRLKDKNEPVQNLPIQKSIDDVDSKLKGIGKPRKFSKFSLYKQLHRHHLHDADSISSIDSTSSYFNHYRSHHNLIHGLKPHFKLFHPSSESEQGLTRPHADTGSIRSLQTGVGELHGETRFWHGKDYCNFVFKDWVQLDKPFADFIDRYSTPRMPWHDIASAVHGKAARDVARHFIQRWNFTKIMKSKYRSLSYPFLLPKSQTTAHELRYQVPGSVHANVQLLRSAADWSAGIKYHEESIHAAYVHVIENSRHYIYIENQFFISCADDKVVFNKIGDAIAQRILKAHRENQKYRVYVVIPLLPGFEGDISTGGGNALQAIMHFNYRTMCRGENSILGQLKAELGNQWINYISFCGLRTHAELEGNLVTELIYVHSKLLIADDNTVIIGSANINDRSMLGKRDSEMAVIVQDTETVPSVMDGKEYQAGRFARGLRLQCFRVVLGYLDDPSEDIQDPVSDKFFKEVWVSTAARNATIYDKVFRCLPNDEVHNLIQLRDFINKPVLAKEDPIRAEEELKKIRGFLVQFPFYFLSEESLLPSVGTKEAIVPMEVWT
Description: PLD1 Cellular Concentration Response Study. It counts as functional.

The nature of experiment [2]: Glucagon-like peptide 1 release potency, NCI-H716 cell line, dose-response, half-maximal inhibitory concentration (AID 1117344). In kind it is functional, cell-based.
The nature of experiment [3]: half-maximal inhibitory concentration for glucagon-like peptide-1 release, STC-1 cell line, dose-response (AID 1117345). In kind it is functional, cell-based.
The nature of experiment [4]: Dose-response inhibition of insulin secretion in a rat insulinoma line at 5 mM glucose (AID 1117331). In kind it is functional, cell-based. The conditions noted are these: INS-1E.

As to `c1ccc2c(c1)Nc1nc3ccccc3nc1N2`, the IC50 on NADPH oxidase 1 is 0.36 µM (active). For the molecule `O=C(/C=C/c1ccc(Cl)c(Cl)c1)N1CCN(C(=O)c2ccc(Cl)cc2)CC1`, the 50% inhibitory concentration (IC50) in experiment [1] is 0.00117 µM (active). For the molecule `O=C(NCCN1CCC2(CC1)C(=O)NCN2Cc1cccnc1)c1ccc(Cl)c(Cl)c1`, the IC50 at Phospholipase D2 is 1.24 µM (active); at Phospholipase D1, 20 µM (active).

Consider `NC(=O)C1(N2CCCCC2)CCN(CCCN2c3ccccc3CCc3ccc(Cl)cc32)CC1` [CLOCAPRAMINE], for which the values for the IC50 in experiment [2], in experiment [3] and in experiment [4] were 18.3 µM (inactive), > 40 µM (inactive) and 10.1 µM (inactive), respectively.
